The source of these data is patent US20250064729A1, “METHODS AND FORMULATIONS FOR IMPROVING THE PHARMACOKINETIC PROPERTIES OF NUTRACEUTICAL COMPOUNDS” (UNIVERSITY OF SOUTH CAROLINA, priority 2023, published 2025).

The term solubility denotes the concentration that dissolves in the medium under given conditions.

The series in a line: Solubility assessment under saturation conditions in simulated gastrointestinal media. To be noted: thermodynamic from solid. The method, then:
Biological media (Biorelevant.com, London, UK) were prepared according to the manufacturer's instructions. […] The resulting suspensions were left for 1 h at room temperature under constant magnetic stirring. A 200-μl aliquot of each suspension was taken into an Eppendorf tube and centrifuged at top speed, and 100 μl supernatant was taken for UV spectrometer detection at 434 nm for emodin and 371 nm for quercetin. The concentration was calculated based on standard curves established using pure emodin or quercetin completely dissolved in methanol.

Each structure is given as a SMILES string. ≈ marks a conversion by molar mass, not a printed value.

Turning to `O=c1c(O)c(-c2ccc(O)c(O)c2)oc2cc(O)cc(O)c12` [Quercetin, 3,3′,4′,5,7-pentahydroxylflavone], the solubility at 1 h runs as follows: (FaSSGF (fasted-state simulated gastric fluid), pH 1.6, fassgf or other biorelevant) 20.8 µg/mL (≈ 68.8 µM); (FaSSIF (fasted-state simulated intestinal fluid), pH 6.5, fassif) 43.4 µg/mL (≈ 144 µM); (FeSSIF (fed-state simulated intestinal fluid), pH 5, fessif) 146 µg/mL (≈ 481 µM).

Consider `Cc1cc(O)c2c(c1)C(=O)c1cc(O)cc(O)c1C2=O` [Emodin, 1,3,8-trihydroxy-6-methylanthraquinone], for which the solubility at 1 h runs as follows: (pH 1.6, fassgf or other biorelevant) 7.1 µg/mL (≈ 26.3 µM); (pH 6.5, fassif) 27.2 µg/mL (≈ 101 µM).
